Source: PubChem BioAssay (NCI)
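Growth conditions: 96-well plates. Treatment: test compound, 48 hours, 5 concentrations. Analysis: linear interpolation between bracketing concentrations; unreached endpoints set to highest concentration. TGI: total growth inhibition.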

Tests used:
Test in all cases: growth of human tumour cells (NCI), 48 h
CAKI-1 renal = test system: CAKI-1 renal
OVCAR-8 ovarian = test system: OVCAR-8 ovarian
T-47D breast = test system: T-47D breast
SW-620 colon = test system: SW-620 colon
UO-31 renal = test system: UO-31 renal
K-562 leukemia = test system: K-562 leukemia
SF-268 CNS = test system: SF-268 CNS
OVCAR-3 ovarian = test system: OVCAR-3 ovarian
HS 578T breast = test system: HS 578T breast
SNB-75 CNS = test system: SNB-75 CNS

| Structure (SMILES) | TGI (CAKI-1 renal) [µM] | TGI (OVCAR-8 ovarian) [µM] | TGI (T-47D breast) [µM] | TGI (SW-620 colon) [µM] | TGI (UO-31 renal) [µM] | TGI (K-562 leukemia) [µM] | TGI (SF-268 CNS) [µM] | TGI (OVCAR-3 ovarian) [µM] | TGI (HS 578T breast) [µM] | TGI (SNB-75 CNS) [µM] |
| --- | --- | --- | --- | --- | --- | --- | --- | --- | --- | --- |
| CC1=CC(=O)N(n2c(Cc3ccccc3)n[nH]c2=O)C1=O | > 100 | > 100 | > 100 | > 100 | > 100 | > 100 | > 100 | > 100 | > 100 |  |
| Cc1cc(C)n(C2OC(CO)C(O)C(O)C2O)c(=S)c1C#N (stereo not given) | > 100 | > 100 | > 100 | > 100 | > 100 |  | > 100 | > 100 | > 100 | > 100 |
| CC(C)=CC(=O)C[C@H]1C(=O)O[C@@H]2C[C@H]3C(C)=CC(=O)[C@@H](O)[C@]3(C)[C@H]3[C@@]4(O)OC[C@]32[C@@H]1[C@@H](C)[C@H]4O | > 50.2 | 0.283 | 0.144 | 6.26 |  | 1.3 | 0.21 | 0.166 | 0.258 | 0.103 |
| O=C1O/C(=C(/Cl)c2cccc3ccccc23)c2ccccc21 | > 100 | > 100 |  | > 100 | > 100 | > 100 | > 100 | > 100 | > 100 | 55.2 |
| Cc1ccccc1N=Nc1ccc(N/N=C2/CCCNC2=O)c(C)c1 | > 100 |  | > 100 | > 100 | > 100 | > 100 | > 100 |  | > 100 |  |
| C/C=C(/C)C(=O)O[C@H]1C[C@@H]2[C@@H](O)c3occ(C)c3C[C@]2(C)[C@@H](C)C1 | 33.3 | 36.9 | 30 | 32.6 |  | 28.5 | 31 | 31.1 | 66.7 |  |
| COc1ccc(CCN2CCN(CCc3ccc(OC)cc3)CC2)cc1 | > 100 | > 100 | > 100 | > 100 | > 100 | > 100 | > 100 | > 100 | > 100 |  |
| COc1cc2c(cc1OC)CCc1cc(OC)c(OC)cc1CC2 | > 100 | > 100 | > 100 | > 100 | > 100 | > 100 |  | > 100 | > 100 | > 100 |
| c1csc(-c2cc(-c3cccs3)c(-c3ccsc3)s2)c1 | > 100 | > 100 | > 100 | > 100 | > 100 | > 100 | > 100 |  | > 100 | > 100 |
| COc1ccc(C2=Nn3c(nnc(Cc4ccc(Cl)cc4)c3=O)SC2)cc1 | > 100 | > 100 | > 100 | > 100 | > 100 | > 100 | > 100 | 92.2 | > 100 |  |
| CC(=O)N[C@@H](Cc1ccc(O)cn1)C(=O)NCc1cccc(Cl)c1 | > 100 |  | > 100 | > 100 | > 100 | > 100 | > 100 | > 100 | > 100 |  |
| O=c1[nH]c(Nc2nc3ccccc3[nH]2)nc2c1CCC2 | > 100 | > 100 |  | > 100 | > 100 | > 100 | > 100 | > 100 | 63.5 | 77.8 |
| N#Cc1c(-c2ccccc2)cc(Nc2cccc(C(F)(F)F)c2)n2c1nc1ccccc12 | 13.1 | 10.3 | 21.1 | 14.2 |  |  | 11.5 | 5.58 |  | 9.53 |
| CC(=O)OC1(C)C=CC(=O)C=C1 | > 100 | > 100 |  | > 100 | 46.4 | > 100 | > 100 | > 100 | > 100 | > 100 |
| Cc1nn(C(=O)Cc2ccccc2)c2c1C(c1ccc(N(C)C)cc1)SC(N)=N2 (stereo not given) | > 100 | > 100 | > 100 | > 100 | > 100 |  | > 100 |  | > 100 | 32.9 |
| COc1cc(OC)cc(-c2nc3cc(F)ccc3s2)c1 | > 100 | 97.8 | > 100 | > 100 | > 100 |  | 32 | 86.3 |  |  |
| Cc1ccc(N=Nc2c(C)c(C#N)c(=S)n(C3OC(CO)C(O)C(O)C3O)c2C)cc1 (stereo not given) | > 100 |  | 46 | 38.8 | 98.8 | > 100 | > 100 | 74.4 | > 100 | 73.2 |
| CCn1c2ccccc2n2c(=O)c3c(c(C#N)c12)CCCC3 | > 100 | > 100 | > 100 | > 100 | > 100 | > 100 | > 100 | > 100 | > 100 |  |
| Cc1ccc(-c2c3nc(c(-c4ccc(C)cc4)c4ccc([nH]4)c(-c4ccc(OCC5COC(C)(C)O5)cc4)c4nc(c(-c5ccc(C)cc5)c5ccc2[nH]5)C=C4)C=C3)cc1 (stereo not given) | > 100 | > 31.6 | > 31.6 | > 31.6 | > 31.6 |  | > 31.6 | > 31.6 | > 100 | > 31.6 |
| COC(=O)C1C(=O)C=CN([C@H](C)c2ccccc2)[C@@H]1Cc1ccc(OC)c(OCc2ccccc2)c1I (stereo not given in full) | > 100 | > 100 | 60.9 | > 100 | 26.3 | > 100 | 41.1 | 28.2 | > 100 |  |
| CC(C)Oc1ccc2c(c1)OCC1Cc3ccccc3OC21 (stereo not given) | > 100 | > 100 | > 100 | > 100 | > 100 | > 100 | > 100 | > 100 |  |  |
| NC(=S)Nc1ccc(S(=O)(=O)Nc2ccc(S(N)(=O)=O)cc2)cc1 | > 100 | > 100 | > 100 | > 100 | > 100 | > 100 |  | > 100 |  |  |
| COC(=O)C(NC(=O)c1ccccc1)c1ccco1 (stereo not given) |  | > 100 | > 100 | > 100 | > 100 | > 100 | > 100 | > 100 | > 100 | > 100 |
